# Structures can show the parent of a compound that is named as a salt. Where two headings read alike, the source gives them in different places.
# Experiments:
# [1] = target: T1, human, citrated, platelet-rich plasma (Homo sapiens, UniProt P05106+P08514); assay: Test (a): inhibition of ADP stimulated platelet aggregation (Born); format: cell-based; settings: ADP induced aggregation of human platelet-rich plasma
# T1 construct: aggregating human, citrated, platelet-rich plasma; endogenous in cells; host or cells: human platelets in citrated platelet-rich plasma
# Excerpt: (i) aggregating human, citrated, platelet-rich plasma by addition of adenosine diphosphate so as to generate a dose-response curve;
# (ii) generating a dose-response curve for ADP stimulated platelet aggregation in the presence of increasing amounts of a test compound (generally in the range 10-^5 M to 10-^10 M); and
# (iii) calculating a pA2 value indicating potency of platelet aggregation inhibition for the test compound, averaged over several concentrations, from the calculated 50% response value for ADP aggregation in the presence and absence of the test compound.
# [2] = target: T2, purified human platelet fibrinogen receptor (GPIIb/IIIa) (Homo sapiens, UniProt P05106+P08514); assay: Test (b): GPIIb/IIIa ELISA, inhibition of biotinylated fibrinogen binding; settings: purified human platelet GPIIb/IIIa, ELISA
# T2 construct: is isolated from human platelet lysates; from tissue
# Protocol: (i) Preparation of human platelet lysates.
# Platelet rich plasma (PRP) is harvested by centrifugation (1000 rpm, 15 mins) of whole blood anticoaoulated with acid citrate dextrose (trisodium citrate 85 mM, citric acid 70 mM, d-glucose 110 mM) 1 part to 6 parts blood. Prostacyclin (PGI2, 1 μM) is added to the PRP before centrifugation (2400 pm, 15 mins) and the resulting pellet is resuspended in modified Tyrodes' solution (NaCl 130 mM, KCl 26 mM, NaHCO3 12 mM, NaH2 PO4 0.5 mM, MgCl2 1 mM, CaCl2 20 mM, Glucose 12 mM, HEPES 5 mM) containing bovine serum albumin 3.5 g/L, PGI2 1 μM and hirudin 0.5 U/ml. The platelet suspension is centrifuged (2400 rpm, 15 mins) and the resultant pellet resuspended in 500 μl of lysis buffer (octyl glucoside 50 mM, HEPES 10 mM, NaCl 150 mM, CaCl2 1 mM, MgCl2 1 mM, PMSF 1 mM, NEM 10 mM, leupeptin 0.1 mM), agitated at 4° C. for 15 minutes then centrifuged at 24000 rpm, 15 mins. The supernatant is stored at 4° C. and the pellet re-suspended in 500 μl of lysis buffer. The centrifugation process is repeated a further 3 tlimes, the pooled supernatants being stored at -70° C.
# (ii) Receptor purification.
# GP Ilb/Ila is isolated from human platelet lysates using a 2 ml peptide (KYGRGDS) coupled CNBr activated Sepharose affinity column. A 1.5 ml volume of platelet lysate is placed on the column and allowed to stand overnight at 4° C. Buffer (30 mls, octyl gluicoside 25 mM, HEPES 10 mM, NaCl 150 mM, CaCl2 1 mM, MgCl2 1 mM, PMSF 1 mM, NEM 10 mM, leupeptin 0.1 mM) is passed through the column and 2 ml fractions are collected throughout. GPIIb/IIIa is eluted with 12 mls of buffer containing HHLGGAKQAGDV (2 mg/ml, pH 7.5), the column is washed using 4 mls buffer and the remaining GPIIb/IIIa eluted using 12 mls buffer containing GRGDSPG (1 mg/ml pH 7.5). The column is finally washed using 20 mls of buffer and can be used for up to three such preparations. Fractions containing FGPIIb/IIIa are identified using gel electrophoresis and immunoblotting, pooled and stored at -70° C.
# 96 well microtitre plates are coated with 100 μl purified human platelet fibrinogen receptor (GPIIb/IIIa) diluted in coating buffer (Tris-HCl 20 mM, NaCl 150 mM, CaCl2 1 mM, pH 7.4) and left overnight at 4° C. The plates are washed using washing buffer (Tris-HCl 50 mM, NaCl 100 mM, CaCl2 2 mM, pH 7.4) and non-specific binding, blocked by the addition of 200 μl 2% BSA (2 hours, 30° C.). The plates are washed prior to incubation (2 hours, 30° C.) with 100 μl biotinylated fibrinogen ([…]) containing either vehicle or test compound. The plates are washed, incubated with streptavidin (5 μg/ml, 1 hour, ambient temperature), then washed again before the addition of 100 μl biotinylated horse radish peroxidase (0.1 μg/ml, 1 hour, ambient temperature). The plates are then washed and equal volumes of peroxidase substrate (3, 5, tetramethyl benzidine 0.4 g/l) and H2 O2 (0.02%) are mixed together immediately before addition of 150 μl to each well. Colour is allowed to develop for 10-15 mins before optical densities are read at 650 nm.
# The concentration of compound required to cause 50% inhibition of biotinylated fibrinogen binding, is calculated and expressed as a pIC50 (-log(IC50)).
# [3] = Test (a): pA2 value indicating potency of platelet aggregation inhibition
# [4] = Test (b): pIC50 (-log(IC50)), 50% inhibition of biotinylated fibrinogen binding to GPIIb/IIIa
# [5] = read-out: Test (a): pA2 value indicating potency of platelet aggregation inhibition (converted)
# [6] = read-out: Test (b): pIC50 (-log(IC50)), 50% inhibition of biotinylated fibrinogen binding to GPIIb/IIIa (converted)
# T1 sequence (P08514 32-887 limits assumed): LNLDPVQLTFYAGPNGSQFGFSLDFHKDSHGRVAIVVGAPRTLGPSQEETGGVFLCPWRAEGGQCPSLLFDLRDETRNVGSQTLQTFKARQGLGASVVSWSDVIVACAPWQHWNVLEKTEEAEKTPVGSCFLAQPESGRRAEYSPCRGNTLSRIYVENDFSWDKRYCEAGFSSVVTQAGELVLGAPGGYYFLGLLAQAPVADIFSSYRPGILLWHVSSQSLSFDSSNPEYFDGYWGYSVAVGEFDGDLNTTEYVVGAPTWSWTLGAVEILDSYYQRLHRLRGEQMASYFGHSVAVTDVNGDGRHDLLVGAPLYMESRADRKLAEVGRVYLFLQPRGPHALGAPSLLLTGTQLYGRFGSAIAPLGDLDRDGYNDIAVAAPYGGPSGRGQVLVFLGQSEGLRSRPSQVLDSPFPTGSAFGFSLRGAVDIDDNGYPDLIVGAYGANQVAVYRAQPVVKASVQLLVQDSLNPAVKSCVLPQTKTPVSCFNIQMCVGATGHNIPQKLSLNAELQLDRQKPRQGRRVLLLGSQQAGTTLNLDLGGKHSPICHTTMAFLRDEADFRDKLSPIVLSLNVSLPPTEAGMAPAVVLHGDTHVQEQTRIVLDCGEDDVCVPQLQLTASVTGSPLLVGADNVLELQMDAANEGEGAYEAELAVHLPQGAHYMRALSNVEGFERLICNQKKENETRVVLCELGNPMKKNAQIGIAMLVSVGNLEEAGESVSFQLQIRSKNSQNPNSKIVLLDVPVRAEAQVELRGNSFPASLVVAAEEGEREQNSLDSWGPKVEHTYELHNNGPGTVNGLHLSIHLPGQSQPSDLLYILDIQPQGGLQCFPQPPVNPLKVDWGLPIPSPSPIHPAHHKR
# T1 sequence (P08514 891-1039 limits assumed): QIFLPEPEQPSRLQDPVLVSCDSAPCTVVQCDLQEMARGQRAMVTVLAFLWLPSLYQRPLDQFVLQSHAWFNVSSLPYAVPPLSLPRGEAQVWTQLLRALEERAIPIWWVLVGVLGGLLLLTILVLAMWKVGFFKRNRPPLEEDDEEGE
# T1 sequence (P05106 27-788): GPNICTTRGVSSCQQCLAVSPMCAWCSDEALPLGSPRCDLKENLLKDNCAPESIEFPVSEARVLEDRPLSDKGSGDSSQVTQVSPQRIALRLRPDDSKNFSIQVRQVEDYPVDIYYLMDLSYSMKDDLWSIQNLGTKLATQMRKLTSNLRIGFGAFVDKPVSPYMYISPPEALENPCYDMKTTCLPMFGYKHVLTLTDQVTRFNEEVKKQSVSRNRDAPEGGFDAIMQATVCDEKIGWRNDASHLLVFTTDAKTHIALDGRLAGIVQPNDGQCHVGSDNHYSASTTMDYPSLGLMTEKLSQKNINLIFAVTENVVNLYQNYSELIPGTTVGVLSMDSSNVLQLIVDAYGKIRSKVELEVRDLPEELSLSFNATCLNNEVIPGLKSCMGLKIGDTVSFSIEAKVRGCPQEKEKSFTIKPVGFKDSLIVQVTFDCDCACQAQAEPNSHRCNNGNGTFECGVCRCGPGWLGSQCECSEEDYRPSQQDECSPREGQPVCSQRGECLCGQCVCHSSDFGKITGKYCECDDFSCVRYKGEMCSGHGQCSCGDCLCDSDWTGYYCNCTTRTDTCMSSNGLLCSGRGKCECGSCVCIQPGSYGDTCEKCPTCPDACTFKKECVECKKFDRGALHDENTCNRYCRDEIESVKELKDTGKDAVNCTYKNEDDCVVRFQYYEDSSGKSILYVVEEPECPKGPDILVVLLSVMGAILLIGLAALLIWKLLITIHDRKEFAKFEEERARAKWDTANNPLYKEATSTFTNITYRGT
# T2 sequence (P08514 32-887 limits assumed): as the sequence (P08514 32-887 limits assumed) above
# T2 sequence (P08514 891-1039 limits assumed): as the sequence (P08514 891-1039 limits assumed) above
# T2 sequence (P05106 27-788): as the sequence (P05106 27-788) above
Structure (SMILES),"Kb [1, 5] [nM]","IC50 [2, 6] [nM]","Test (b): pIC50 (-log(IC50)), 50% inhibition of biotinylated fibrinogen binding to GPIIb/IIIa [2]","Kb [1, 3] [nM]","IC50 [2, 4] [nM]"
"COC(=O)COc1ccc(C(=O)C(C)N2CCN(c3ccncc3)CC2)cc1 (racemic) [Example 16, (RS) Methyl 4-[2-[4-(4-pyridyl)piperazin-1-yl]-2-methylacetyl]phenoxyacetate]",,,,158,200
"CC(C(=O)c1ccc(OCC(=O)O)cc1)N1CCN(c2ccncc2)CC1 (racemic) [Example 17, RS 4-[2-[4-(4-Pyridyl)piperazin-1-yl]2-methylacetyl]phenoxyacetic acid sodium chloride adduct dihydrate]",,,,39.8,20
"CCCCS(=O)(=O)NC(Cc1ccc(C(=O)CN2CCN(c3ccncc3)CC2)cc1)C(=O)OC (racemic) [Example 66, Methyl 2-RS-(n-butylsulphonylamino)-3-[4-[2-[4-(4-pyridyl)piperazin-1-yl]acetyl]phenyl]propionate]",2000,251,,,
"CCCCS(=O)(=O)NC(Cc1ccc(C(=O)CN2CCN(c3ccncc3)CC2)cc1)C(=O)O (racemic) [Example 67, 2-RS-(n-Butylsulphonylamino)-3-[4-[2-[4-(4-pyridyl)piperazine-1-yl]acetyl]phenyl]propionic acid]",2.51,3.16,,,
"CCCCS(=O)(=O)NC(Cc1ccc(CN2CCN(c3ccncc3)CC2)cc1)C(=O)O (racemic) [Example 68, 2-RS-(n-Butylsulphonylamino)-3-[4-(4-pyridyl)piperazin-1-ylmethylene]phenylpropionic acid]",316,12.6,,,
"CCCCS(=O)(=O)NC(CC1CCN(C(=O)CN2CCN(c3ccncc3)CC2)CC1)C(=O)OCC (racemic) [Example 110, Ethyl 2RS-(n-butylsulphonylamino)-3-[1-[2-[4-(4-pyridyl)piperazin-1yl]-acetyl]piperidin-4-yl]propanoate]",6310,> 100000,,,
CCCCS(=O)(=O)NC(CC1CCN(C(=O)CN2CCN(c3ccncc3)CC2)CC1)C(=O)O (racemic) [Example 111],5010,6310,,,
"COC(=O)COc1ccc(C(=O)C(C)CN2CCN(c3ccncc3)CC2)cc1 (racemic) [Example 177, RS Methyl 4-[3-[4-(4-pyridyl)piperazin-1-yl]-2-methylpropanoyl]-phenoxyacetate]",1580,79400,,,
"C=CC(COc1ccc(N2CCN(c3ccncc3)CC2)cc1)CC(=O)O (racemic) [Example 204, RS-4-[4-[4-(4-Pyridyl)piperazin-1-yl]phenoxy]-3-vinylbutyric acid, sodium salt]",79.4,1.26,,,
"COC(=O)C(CCOc1ccc(N2CCN(c3ccncc3)CC2)cc1)NC(=O)OC(C)(C)C (racemic) [Example 211, RS Methyl 2-t-butoxycarbonylamino-4-[4-[4-(4-pyridyl)piperazine-1-yl]phenoxy]butyrat]",1580,158,,,
"COC(=O)C(N)CCOc1ccc(N2CCN(c3ccncc3)CC2)cc1 (racemic) [Example 213, RS Methyl 2-amino-4-[4-[4-(4-pyridyl)piperazin-1-yl]phenoxy]butyrate]",200,501,,,
O=C(O)CO[C@@H]1CCN(C(=O)CN2CCN(c3ccncc3)CC2)C[C@H]1OCC(=O)O (relative stereo) [Example 105],251,251,,,
"COC(=O)COc1ccc(C(=O)CCN2CCN(c3ccncc3)CC2)cc1 [Example 7, Methyl 4-[3-[4-(4-pyridyl)piperazin-1-yl]propanoyl]phenoxyacetate]",501,3980 to 6310,,,
"O=C(O)CCN(Cc1ccccc1)C(=O)c1ccc(N2CCN(c3ccncc3)CC2)cc1 [Example 236, 3-[4-[4-(4-Pyridyl)piperazin-1-yl]]-N-benzylbenzamidopropionic acid]",794,,,,
"O=C(O)CN1CCC(Oc2ccc(N3CCN(c4ccncc4)CC3)cc2)CC1 [Example 238, 4-[4-[4-(Pyridyl)piperazin-1-yl]phenoxy]piperidineacetic acid]",1260,,,,
O=C(O)CN1CCCC(Oc2ccc(N3CCN(c4ccncc4)CC3)cc2)C1 (centres unmarked) [Example 239],2510,,,,
"CCOC(=O)CCCOc1ccc(N2CCN(c3ccncc3)CC2=O)cc1 [Example 242, Ethyl 4-[4-[4-(4-pyridyl)piperazin-2-one-1yl]phenoxy]butyrate]",316,,,,

# Continued, in another order:
"Kb [1, 5] [nM]","IC50 [2, 6] [nM]","Test (b): pIC50 (-log(IC50)), 50% inhibition of biotinylated fibrinogen binding to GPIIb/IIIa [2]",Structure (SMILES),"Kb [1, 3] [nM]","IC50 [2, 4] [nM]"
50.1 to 79.4,25.1,7.6,O=C(O)COc1ccc(C(=O)CN2CCN(c3ccncc3)CC2)cc1 [Example 2],,
501,251,,COC(=O)COc1ccc(C(=O)CN2CCN(c3ccncc3)CC2)cc1OCC(=O)OC [Example 3],,
1.26,0.794,,"O=C(O)COc1ccc(C(=O)CN2CCN(c3ccncc3)CC2)cc1OCC(=O)O [Example 4, 2,2'-[4-[2-[4-(4-Pyridyl)piperazin-1-yl]acetyl]phenylene-1,2-dioxy]diaceticacid]",,
1000,1000,,"COC(=O)COc1ccc(C(=O)CN2CCN(c3ccncc3)CC2)cc1OC [Example 5, Methyl 4-[2-[4-(4-pyridyl)piperazin-1-yl]acetyl]-2-methoxyphenoxyacetate]",,
63.1,25.1,,"COc1cc(C(=O)CN2CCN(c3ccncc3)CC2)ccc1OCC(=O)O [Example 6, 4-[2-[4-(4-Pyridyl)piperazin-1-yl]acetyl]-2-methoxyphenoxyacetic acid]",,
316,79.4,,"O=C(O)COc1ccc(C(=O)CCN2CCN(c3ccncc3)CC2)cc1 [Example 8, 4-[3-[4-(4-Pyridyl)piperazin-1-yl]propanoyl]phenoxyacetic acid]",,
12600,50100,,"COC(=O)CSc1ccc(C(=O)CN2CCN(c3ccncc3)CC2)cc1 [Example 9, Methyl 4-[2-[4-(4-pyridyl)piperazin-1-yl]acetyl]phenylthioacetate]",,
2000,1000,,O=C(O)CSc1ccc(C(=O)CN2CCN(c3ccncc3)CC2)cc1 [Example 10],,
25.1,,,"CCCc1cc(C(=O)CN2CCN(c3ccncc3)CC2=O)ccc1OCC(=O)O [Example 240, [2-Propyl-4-[2-[4-(4-pyridyl)piperazin-2-one-1-yl]acetyl]]phenoxyacetic acid]",,
6.31,,,"Cc1cc(C(=O)CN2CCN(c3ccncc3)CC2=O)ccc1OCC(=O)O [Example 241, [2-Methyl-4-[2-[4-(4-pyridyl)piperazin-2-one-1-yl]acetyl]]phenoxyacetic acid]",,
10,,,"O=C(O)CCCOc1ccc(N2CCN(c3ccncc3)CC2=O)cc1 [Example 243, 4-[4-[4-(4-Pyridyl)piperazin-2-one-1-yl]phenoxy]butyric acid]",,

# Reference: patent US5750754A, “Heterocyclic compounds” (Zeneca Limited, priority 1993, dated 1998)
